Measured values published in patent publication US5521167A, “Cyclopentanperhydrophenanthren-17β-(hydroxy or alkoxy)-17α-(Aryl or heterocyclyl)-3β-derivatives active on the cardiovascular system, and pharmaceutical compositions containing same” (Sigma-Tau Industrie Farmceutiche Riunite S.p.A., priority 1992, dated 1996).

How the values were obtained:
[1] = biological target: T1, Na^+,K^+ -ATPase (Canis lupus familiaris, UniProt P50997); assay: inhibition of the activity of the purified Na^+,K^+ -ATPase measured as % of hydrolysis of ^32 P-ATP; assay type: biochemical
T1 construct: Na^+,K^+ -ATPase receptor purified according to Jorghensen; from tissue
Excerpt: (§1) To test the affinity for the receptor site of the Na^+,K^+ -ATPase and the agonist or antagonist activity on the enzyme, the following tests were used: a) displacement of the specific ^3 H-ouabain binding from the Na^+,K^+ -ATPase receptor purified according to Jorghensen (Jorghensen P., BBA, 1974, 356, 36) and Erdmann ( Erdmann E. et al., Arzneim. Forsh., 1984, 34, 1314); b) inhibition of the activity of the purified Na^+,K^+ -ATPase measured as % of hydrolysis of ^32 P-ATP in presence and in absence of the tested compound (Doucet A. et al., Am. J. Physiol., 1986, 251, F851). The ability of these compounds to lower blood pressure in adult hypertensive MHS rats was tested according to the following scheme: systolic blood pressure (SBP) and heart rate (HR) were measured by an indirect tail-cuff method in three-month old hypertensive MHS rats before starting with the treatment (basal values). The rats were then subdivided in two groups of 7 animals each, one receiving the compound and the other, the control group, receiving only the vehicle. The compound was orally daily given, suspended in Methocel 0.5% (w/v), for ten days. SBP and HR were measured daily 6 and 24 hours after the treatment.

[2] = biological target: T1, Na^+,K^+ -ATPase; assay: displacement of the specific ^3 H-ouabain binding from the purified Na^+,K^+ -ATPase receptor
Excerpt: as §1

[3] = system: hypertensive MHS rats; assay: systolic blood pressure and heart rate in hypertensive MHS rats (indirect tail-cuff, ten-day oral treatment); assay type: in vivo, rat; conditions: 20 mg/Kg/os daily for ten days, in METHOCEL 0.5% w/v, 7 rats; for SYSTOLIC BLOOD PRESSURE FALL IN SPONTANEOUS HYPERTENSIVE RATS (MHS), SBP: controls 171 +/- 4.5; for HR: controls 384 +/- 11.0
Excerpt: as §1
After ten-day treatment, washout was started for at least two days, to verify whether the treatment maintained SBP low or reestablished the basal values.

[4] = hydrolysis of ^32 P-ATP, purified Na^+,K^+ -ATPase, read-out: Inhibitory Activity log IC50 (converted)
[5] = ^3 H-ouabain displacement, purified Na^+,K^+ -ATPase, read-out: Binding ^3 H-Ouab. Displacement log IC50 (converted)

| SMILES | IC50 [1, 4] | IC50 [2, 5] | IC50 [1] | SYSTOLIC BLOOD PRESSURE FALL IN SPONTANEOUS HYPERTENSIVE RATS (MHS), SBP [3] | HR [3] | IC50 [2] |
| --- | --- | --- | --- | --- | --- | --- |
| C[C@]12CC[C@H](OCCOCCN3CCCC3)C[C@@H]1CC[C@@H]1[C@@H]2CC[C@@]2(C)[C@H]1CC[C@@]2(O)c1ccoc1 [Comp. I-al, 3β-(2-(2(1-Pyrrolidinyl)ethoxyy)ethoxy)-17α-(3-furyl)-androstan-17β-ol] | 1580 nM | 501 nM | – | – | – | – |
| C[C@]12CC[C@H](OCCN3CCCC3)C[C@@H]1CC[C@@H]1[C@@H]2CC[C@@]2(C)[C@H]1CC[C@@]2(OCCN1CCCC1)c1ccoc1 [Comp. I-ak, 3β, 17β-Bis(2-(1-pyrrolidinyl)ethoxy)-17α-(3-furyl)-androstane] | – | 398 nM | 5010 nM | – | – | – |
| C[C@]12CC[C@H](OCCN3CCCC3)C[C@H]1CC[C@@H]1[C@@H]2CC[C@@]2(C)[C@H]1CC[C@@]2(OCCN1CCCC1)c1ccoc1 [Comp. I-ad, 3β17β-Bis(2-(1-pyrrolidinyl)ethoxy)-17α-(3-furyl)-5β-androstane] | – | 398 nM | 3160 nM | – | – | – |
| C[C@]12CC[C@H](SCCOCCN3CCCC3)C[C@@H]1CC[C@@H]1[C@@H]2CC[C@@]2(C)[C@H]1CC[C@@]2(OCCN1CCCC1)c1ccoc1 [Comp. I-ca, 3β-(2-(2-(1-Pyrrolidinyl)ethoxy)ethylthio)-17β-(2-(1-pyrrolidinyl)ethoxy)-17α-(3-furyl)-androstane] | 2000 nM | 316 nM | – | – | – | – |
| C[C@]12CC[C@H](OCCOCCN3CCCC3)C[C@@H]1CC[C@@H]1[C@@H]2CC[C@@]2(C)[C@H]1CC[C@@]2(OCCN1CCCC1)c1ccoc1 [Comp. I-an, 3β-(2-(2-(1-Pyrrolidinyl)ethoxy)ethoxy)-17β-(2-(1-pyrrolidinyl)ethoxy)-17α-(3-furyl)-androstane] | – | – | – | 152 +/- 5.0 mm Hg | 375 +/- 9.0 beats/min. | – |
| C[C@]12CC[C@H](OCCOCCN3CCCC3)C[C@@H]1CC[C@@H]1[C@@H]2CC[C@@]2(C)[C@H]1CC[C@@]2(OCCN)c1ccoc1 [Comp. I-am, 3β-(2-(2-(1-Pyrrolidinyl)ethoxy)ethoxy)-17β-(2-aminoethoxy)-17α-(3-furyl)-androstane] | 1580 nM | 200 nM | – | 153 +/- 5.1 mm Hg | 378 +/- 8.5 beats/min. | – |
| C[C@]12CC[C@H](O)C[C@H]1CC[C@@H]1[C@@H]2CC[C@]2(C)[C@@H](c3ccoc3)CC[C@]12O [Ref. comp., 17β-(3-furyl)-5β-androstane-3β, 14β-diol, reference compound] | – | – | 2000 nM | 173 +/- 4.0 mm Hg | 380 +/- 10.0 beats/min. | 501 nM |
| C[C@]12CC[C@H](OCCOCCN3CCCC3)CC1=CC[C@@H]1[C@@H]2CC[C@@]2(C)[C@H]1CC[C@@]2(OCCN1CCCC1)c1ccoc1 [Comp. I-ay, 3β-(2-(2-(1-pyrrolidinyl)ethoxy)ethoxy)-17β-(2-(1-pyrrolidinyl)ethoxy)-17α-(3furyl)-androst-5-ene] | 1580 nM | 398 nM | – | 149 +/- 4.8 mm Hg | 395 +/- 10.0 beats/min. | – |
| C[C@]12CC[C@H](OCCOCCN3CCCC3)C=C1CC[C@@H]1[C@@H]2CC[C@@]2(C)[C@H]1CC[C@@]2(OCCN)c1ccoc1 [Comp. I-aq, 3β-(2-(2-(1-Pyrrolidinyl)ethoxy)ethoxy)-17α-(2-aminoethoxy)-17α-(3-furyl)-androst-4-ene] | – | 316 nM | 2510 nM | 148 +/- 3.2 mm Hg | 388 +/- 12.0 beats/min. | – |
| C[C@]12CC[C@H](OCCCN)C[C@@H]1CC[C@@H]1[C@@H]2CC[C@@]2(C)[C@H]1CC[C@@]2(O)c1ccoc1 [Comp. I-ai, 3β-(3-Aminopropoxy)-17α-(3-furyl)-androstan-17β-ol] | 1580 nM | – | – | – | – | 251 nM |
